This assay has as its target Acetylcholinesterase (Homo sapiens, UniProt P22303). Kind of assay: Inhibition of acetylcholinesterase (unknown origin) assessed as inhibition of acetylcholine hydrolysis after 30 mins by Ellmann's method.

Sequence of Acetylcholinesterase (P22303 whole entry): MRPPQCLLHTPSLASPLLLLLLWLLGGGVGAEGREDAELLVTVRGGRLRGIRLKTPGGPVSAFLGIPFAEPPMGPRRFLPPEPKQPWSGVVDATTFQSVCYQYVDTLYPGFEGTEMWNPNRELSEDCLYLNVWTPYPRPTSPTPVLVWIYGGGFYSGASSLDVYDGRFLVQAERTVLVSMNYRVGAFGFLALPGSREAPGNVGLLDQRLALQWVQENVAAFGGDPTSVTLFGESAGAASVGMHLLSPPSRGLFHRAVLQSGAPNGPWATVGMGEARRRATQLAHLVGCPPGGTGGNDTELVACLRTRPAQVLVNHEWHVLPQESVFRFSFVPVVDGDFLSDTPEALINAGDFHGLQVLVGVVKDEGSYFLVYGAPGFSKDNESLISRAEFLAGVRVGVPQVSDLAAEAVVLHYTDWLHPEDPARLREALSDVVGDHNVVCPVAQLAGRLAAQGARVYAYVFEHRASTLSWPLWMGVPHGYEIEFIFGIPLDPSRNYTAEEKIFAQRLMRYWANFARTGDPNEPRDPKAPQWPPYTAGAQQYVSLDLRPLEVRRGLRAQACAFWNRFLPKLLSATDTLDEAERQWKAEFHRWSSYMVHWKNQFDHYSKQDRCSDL

In the case of `C/C=C1\[C@H]2C=C(C)C[C@]1(N[C@H]1OC(=O)C3=C4CC(C)(C)C[C@H]4[C@@H](C)[C@@H](O)C[C@]31OC)c1ccc(=O)[nH]c1C2`, the IC50 was 990 nM. Then `C/C=C1\[C@H]2C=C(C)C[C@]1(N[C@H]1OC(=O)C3=C4CC(C)(C)C[C@H]4[C@@H](C)[C@@H](O)C[C@]31O)c1ccc(=O)[nH]c1C2`, with 2170 nM. The value for `C/C=C1\[C@H]2C=C(C)C[C@]1(NC1OCC3=C4CC(C)(C)C[C@H]4[C@@H](C)[C@H](O)CC31O)c1ccc(=O)[nH]c1C2` (stereo not given in full) was 110 nM. Regarding `C/C=C1\[C@H]2C=C(C)C[C@]1(NC1OCC3=C4CC(C)(C)[C@H](O)[C@H]4[C@@H](C)CCC31O)c1ccc(=O)[nH]c1C2` (stereo not given in full), the IC50 amounted to 60 nM.

On to `C/C=C1/[C@@H]2Cc3[nH]c(=O)ccc3[C@@]1(N)C[C@]1(C)O[C@H]21`, for which the IC50 was 12100 nM.

A word on the IC50: it is the concentration that gives 50% inhibition.
